# Experimental data published in US20250381216A1, “PROPHYLACTIC DRUG AND THERAPEUTIC DRUG FOR DIABETES-ASSOCIATED DEMENTIA” (priority 2022, published 2025).
# Key:
# [1] = system: diabetes-associated dementia model (STZ injected into the cerebral ventricles of mice); experiment: Morris water maze training test (spatial learning) in mice given streptozotocin intracerebroventricularly; format: in vivo, C57BL/6 mice
# Text: (§1) Male C57BL/6 mice (20-22 g), 6 weeks old, were purchased from Japan SLC, Inc., and acclimated for one week. All mice (3-5 mice per cage) were maintained under specific pathogen-free conditions with a 12-hour light/dark cycle in a temperature and humidity-controlled room, with free access to food and water. Mouse diet (D12450B) was purchased from Research Diets, Inc. After the experiment, mice were anesthetized with 4% isoflurane vapor using a simple inhalation anesthesia device (NARCOBIT-E, Natsume Seisakusho Co., Ltd.) and euthanized by cardiac puncture for whole blood collection.
# (§2) LPS (Pantoea agglomerans LPS mac0001, Macrophi Inc.), prepared and purified according to the fermentation culture method (PTL 2) developed by Soma et al., was used. LPS was administered orally by dissolving LPS in drinking water (sterilized distilled water) at a dose of 1 mg/kg body weight/day. The LPS dosage was based on previous studies (NPL 8, 9). Drinking water was replaced weekly, and LPS concentration was adjusted according to average body weight and water intake. The LPS used is a substance present in the environment, consumed to some extent in daily life, and has also been added to food and cosmetics. LPS, when orally fed, enhances the functionality of phagocytes (macrophages) in the peritoneal cavity and brain (NPL 8, 9). Activated phagocytes have the function of repairing damaged tissues in the body. LPS may be derived from plant symbiotic bacteria with food experience, such as Pantoea, Enterobacter, Xanthomonas, Acetobacteraceae, and Zymomonas, but the specific strain is not limited as long as it is LPS.
# We used a method of directly administering STZ into the cerebral ventricles as a model of the diabetes-associated dementia that causes spatial memory deterioration without increasing blood glucose levels (NPL 7). STZ was purchased from Sigma-Aldrich Co. LLC. After anesthetizing with 4% isoflurane using a stereotaxic apparatus SR-5M-HT (Narishige Co., Ltd.), STZ (2.0 mg/mouse, dissolved in 5 μl saline) was injected singly into the right lateral ventricle using a microinjector IMS-20 and micromanipulator SMM-100 (Narishige Co., Ltd.). The stereotaxic coordinates were +0.3 mm anterior, +1.0 mm lateral (right), and +2.5 mm ventral from the intersection of the sagittal and coronal sutures. After suturing the skin, an appropriate amount of antibiotic ointment (20 mg/g chloramphenicol, 5 mg/g fradiomycin, 100,000 U/g nystatin, Daiichi Sankyo Healthcare Co., Ltd.) was applied to the wound. For non-STZ control mice, 5 μl of saline was injected into the right lateral ventricle. After surgery, mice were monitored daily for pain/discomfort and infection according to guidelines. 5 μL of 5% trypan blue (Nacalai Tesque, Inc.) was administered intracerebroventricularly to confirm proper needle placement.
# For the prevention experiment of LPS oral administration against the diabetes-associated dementia, mice were given free access to LPS in drinking water (1 mg/kg body weight/day for 33 days until the end of the test) from one week before STZ administration until the end of the experiment. Cognitive assessment tests (Morris water maze test) were conducted 3 weeks after STZ administration (4 weeks after starting LPS oral intake). 17-19 mice were used for each group.
# For the treatment experiment of LPS oral administration against the diabetes-associated dementia, cognitive assessment tests (Morris water maze test) were conducted 12 days after STZ administration to confirm cognitive function decline. From 20 days after STZ administration, mice were given free access to LPS in drinking water (1 mg/kg body weight/day for 25 days until the end of the test). Cognitive assessment tests (Morris water maze test) were conducted 40 days after STZ administration (day 20 of LPS oral intake).
# The Morris water maze test consists of tests evaluating spatial learning ability (training test) and spatial memory ability (probe test). […]
# [2] = system: diabetes-associated dementia model (STZ injected into the cerebral ventricles of mice); experiment: Morris water maze probe test (spatial memory) in mice given streptozotocin intracerebroventricularly; format: in vivo, C57BL/6 mice; details: for Residence time in the quadrant where the platform was previously located: mean ± SE
# Text: as §1, §2
# We used a method of directly administering STZ into the cerebral ventricles as a model of the diabetes-associated dementia that causes spatial memory deterioration without increasing blood glucose levels (NPL 7). STZ was purchased from Sigma-Aldrich Co. LLC. […] After surgery, mice were monitored daily for pain/discomfort and infection according to guidelines. […]
# [3] = training test starting 12 days after icv STZ 2.0 mg/mouse, before LPS treatment, mean ± SE
# [4] = treatment experiment, training test starting 40 days after icv STZ, LPS 1 mg/kg body weight/day in drinking water from day 20 after STZ
compound,measurement,setting,value
"CN(N=O)C(=O)N[C@H]1C(O)O[C@H](CO)[C@@H](O)[C@@H]1O (mixture of isomers) [STZ, streptozotocin]","Spatial learning ability (platform travel time over 4 days of training, FIG. 1)","[1]; prevention experiment, LPS 1 mg/kg body weight/day in drinking water from one week before icv STZ, test three weeks after STZ",inhibited reduction in platform travel time compared to the Saline group
same,"Travel time (time required to reach the platform), training day 1",[1]; [3],55.1 ± 2.14 s
same,"Travel time (time required to reach the platform), training day 2",[1]; [3],43.8 ± 7.00 s
same,"Travel time (time required to reach the platform), training day 3",[1]; [3],40.4 ± 7.09 s
same,"Travel time (time required to reach the platform), training day 4",[1]; [3],33.3 ± 6.74 s
same,"Travel time (time required to reach the platform), training day 1",[1]; [4],44.42 ± 3.81 s
same,"Travel time (time required to reach the platform), training day 2",[1]; [4],37.25 ± 10.41 s
same,"Travel time (time required to reach the platform), training day 3",[1]; [4],27.83 ± 7.71 s
same,"Travel time (time required to reach the platform), training day 4",[1]; [4],35.75 ± 10.44 s
same,"Spatial memory ability (residence time in the target quadrant, FIG. 2)","[2]; prevention experiment, LPS 1 mg/kg body weight/day in drinking water from one week before icv STZ, probe test the day after training",significantly shorter residence time in the target quadrant compared to the Saline group
same,Residence time in the quadrant where the platform was previously located,"[2]; probe test 16 days after icv STZ 2.0 mg/mouse, before LPS treatment, 60-second test",18.0 ± 2.83 s
same,Residence time in the quadrant where the platform was previously located,"[2]; treatment experiment, probe test 44 days after icv STZ, LPS 1 mg/kg body weight/day in drinking water from day 20 after STZ",24.1 ± 8.73 s
